Test results published in patent US20180282279A1, “Pantothenamide Analogues” (Radboud Universitair Medisch Centrum, priority 2014, published 2018).
In brackets after ≈: the same amount, converted by molar mass. Entries after “also recorded” stand apart in the source; their conditions may differ. Read-outs that look alike come from different tables or passages of the source.

Tests used:
[1] = test system: fetal bovine serum as a source of pantetheinase activity; test: Stability in vitro in fetal bovine serum (LC-MS); format: in vitro ADME
Protocol: FIG. 1: Inverted amides are stable in serum. The stability of pantothenamide CXP18.3-002 (A-C) and its corresponding inverted amide CXP18.6-006 (D-F) was measured using LC-MS analysis after overnight incubation in buffer (A and D), buffer with 10% fetal bovine serum (B and E) and buffer with 10% FBS supplemented with the vanin inhibitor RR6 (C-F). Fetal bovine serum contains a high level of vanin (pantetheinase) activity. Both compounds are stable after incubation in buffer alone (figure A and D). The small peaks in the amine channels, with molecular masses of 163 (A) en 191 (D), are either the result of disruption of compound during ionization (CXP18.3-002-sample) or background from the buffer (CXP18.6-006-sample). […] Explanation of masses and compounds: CXP18.3-002, exact mass 322.189, found at mass 305 (—H2O (18)+H^+(1)). Amine from CXP18.3-002, exact mass 121.089, found at 163 (+ACN(41) +H^+(1)). Pantothenic acid, exact mass 219.111, found at mass 220 (+H^+(1)). RR6, exact mass 293.163, found at 294 (+H^+(1)). CXP18.6-006, exact mass 322.189, found at mass 305 (—H2O (18) +H^+(1)). Amine from CXP18.6-006, exact mass 150.068, found at 151 (+H^+(1)).
Conventional pantothenamides are hydrolysed by pantetheinases in body fluids as shown before (Jansen et al 2013) thereby losing their antimicrobial activity (Jansen et al 2013, Spry et al 2013, PLoS One 8:e54974). Bioisosteric pantothenamides retained their in vitro antimicrobial activity in the presence of serum, as will be shown in the next examples. To examine the stability of analogues in vitro, CXP18.3-002 and its bioisostere CXP18.6-006 were incubated for 16 h at room temperature in PBS with 10% fetal bovine serum as a source of pantetheinase activity. Samples were taken and analyzed by LC-MS using a Shimadzu LC10ATvp HPLC coupled to a Shimadzu LCMS2010 A mass spectrometer. […] The hydrolysis of the pantothenamides by fetal bovine serum could be inhibited by the addition of RR6, a potent inhibitor of pantetheinase activity, as described before (Jansen en al 2013).

[2] = test system: Staphylococcus aureus; test: Bacterial growth assay and MIC determination, S. aureus; format: cell-based; details: Staphylococcus aureus
Protocol: (§1) Strains of Escherichia coli, Staphylococcus aureus and Staphylococcus epidermidis, were grown overnight in 1% Bacto tryptone medium (BD, Sparks, Md.). Streptococcus pyogenes was grown overnight in Bacto Todd Hewitt Broth medium (BD, Sparks, Md.). Cultures were then diluted 1:1,000 in fresh assay medium supplemented with or without 20% fetal bovine serum (FBS; HyClone, Celbio, Logan, Utah) and added to 96-well sterile enzyme-linked immunosorbent assay (ELISA) plates (100 μl per well). The compounds to be tested were diluted in the medium without serum and added to the bacteria (100 μl per well). Plates were incubated at 37° C., and bacterial growth was monitored over time by reading the optical density at 490 nm using a microplate reader (model 450; Bio-Rad Laboratories Inc., Hercules, Calif.). Streptococcus pneumoniae strains were grown to mid-log phase (OD620 of 0.3) and stored in 15% glycerol at […] till further use. Minimal inhibitory concentration (MIC) of antibiotics was determined according to standard procedures. Bacteria were diluted 10-fold in Mueller-Hinton medium (BD, Sparks, Md.) and added to 96-well sterile ELISA plates (150 μl per well). The compounds to be tested were diluted in the medium without serum and added to the bacteria (150 μl per well). Plates were incubated overnight at 37° C. in 5% CO2. The MIC was defined as the lowest concentration of compound at which no growth was visible with the naked eye.

[3] = test system: Streptococcus pyogenes; test: Bacterial growth assay and MIC determination, S. pyogenes; format: cell-based; details: Streptococcus pyogenes; S. pyogenes, serum −; read-out: MIC
Protocol: as §1

[4] = test system: Streptococcus pneumoniae; test: MIC determination, S. pneumoniae; format: cell-based; details: Streptococcus pneumoniae; S. pneumoniae, serum −; read-out: MIC
Protocol: Streptococcus pneumoniae strains were grown to mid-log phase (OD620 of 0.3) and stored in 15% glycerol at […] till further use. Minimal inhibitory concentration (MIC) of antibiotics was determined according to standard procedures. Bacteria were diluted 10-fold in Mueller-Hinton medium (BD, Sparks, Md.) and added to 96-well sterile ELISA plates (150 μl per well). The compounds to be tested were diluted in the medium without serum and added to the bacteria (150 μl per well). Plates were incubated overnight at 37° C. in 5% CO2. The MIC was defined as the lowest concentration of compound at which no growth was visible with the naked eye.

[5] = test system: Escherichia coli; test: Bacterial growth assay and MIC determination, E. coli; format: cell-based; details: Escherichia coli, serum −, read-out: MIC
Protocol: as §1

| SMILES | stability in buffer with 10% fetal bovine serum ([1]; PBS with 10% FBS, 16 h (overnight), room temperature) | stability after overnight incubation in buffer ([1]; buffer alone) | stability in buffer with 10% FBS supplemented with the vanin inhibitor RR6 ([1]; overnight) | MIC ([2]; S. aureus, serum −, read-out: MIC) | MIC ([2]; Table 1, most sensitive species S. aureus (SA), read-out: MIC (μg/ml) for most sensitive bacterial species) | MIC [3] | MIC [4] | MIC [5] |
| --- | --- | --- | --- | --- | --- | --- | --- | --- |
| CC(C)(CO)[C@@H](O)C(=O)NCCNC(=O)CCc1ccccc1 [CXP18.6-006] | remains intact; also recorded: No appreciable degradation | stable | had no effect | – | – | – | – | – |
| CC(C)(CO)[C@@H](O)C(=O)NCCNC(=O)CCc1ccccc1F [CXP18.6-017] | – | – | – | 2 µg/mL (≈ 5.88 µM) | 2 µg/mL (≈ 5.88 µM) | 8 µg/mL (≈ 23.5 µM) | > 32 µg/mL | > 256 µg/mL |
